Test results: patent publication US20220031712A1, “PREPARATION OF A PHARMACEUTICAL COMPOSITION OF OLODATEROL AND BUDESONIDE” (priority 2020, published 2022)
Structures can show the parent of a compound that is named as a salt.

Assay: Thermal stability of Samples 1-4 at 60° C. (HPLC content and impurity detection)
Format: physicochemical
Method: The thermal stability of samples 1˜4 of example 1 at 60° C. is provided below:
Impurity detection method: • Mobile phase A: accurately weigh 3.17 g of sodium dihydrogen phosphate, add 1 L of pure water to dissolve, adjust the pH of the solution to 3.20 with phosphoric acid. Mobile Phase B: Acetonitrile. • Instrument ID: HPLC. • Column ID: YMC-Triart C18 250*4.6 5 μm. • Detection wavelength: 230 nm. • Flow rate: 1.0 mL/min. • Running time: 35 min.

stability of OH in the formulation (at pH 5.5 and pH 4.0, pH adjusted with citric acid) | stability of BD in the formulation (at pH 4.0 and 4.5, pH adjusted with citric acid) | Compound
relatively stable |  | COc1ccc(CC(C)(C)NC[C@H](O)c2cc(O)cc3c2OCC(=O)N3)cc1 [OH, Olodaterol hydrochloride]
 | relatively stable | CCCC1O[C@@H]2C[C@H]3[C@@H]4CCC5=CC(=O)C=C[C@]5(C)[C@H]4[C@@H](O)C[C@]3(C)[C@]2(C(=O)CO)O1 (stereo partly drawn) [BD, 11β,21-dihydroxy-16α,17α-(butylidenebis(oxy))pregna-1,4-diene-3,20-dione]
